IC50 data for 19 compounds are collected here from US9981975B2, “Pyrrolotriazine compounds as tam inhibitors” (Incyte Corporation, priority 2016, dated 2018).

As usually defined, the IC50 is the concentration needed to halve the response being measured.

Each structure is given as a SMILES string.

Common to all, as to type: biochemical
Assay [1] concerns the target phosphor-Axl (Homo sapiens (Human), UniProt P30530). Kind of assay: TAM Enzymatic Assay (HTRF), Axl. The conditions noted are these: recombinant autophosphorylated Axl, 60 min, room temperature. A general note: Time-resolved FRET reads energy transfer from a long-lived donor to a nearby acceptor.
Assay [2] has as its target Tyro3 (Homo sapiens (Human), UniProt Q06418). Kind of assay: TAM Enzymatic Assay (HTRF), Tyro3. The conditions noted are these: Tyro3, 60 min, room temperature. The gist of the method:
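Reactions ran 60 min at room temperature, protected from light, started by substrate addition to enzyme plus DMSO compound, in pH 7.5 HEPES buffer with 10 mM MgCl2, 1 mM EGTA, 0.01% NP-40, 2 mM DTT.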

Assay [3] addresses c-Mer (Homo sapiens (Human), UniProt Q12866). Nature of the assay: TAM Enzymatic Assay (HTRF), Mer. To be noted: 60 min, room temperature. The procedure: The kinase assay buffer contained 50 mM HEPES, pH7.5, 10 mM MgCl2, 1 mM EGTA, 0.01% NP-40 and 2 mM DTT. 0.1 ul test compounds dissolved in DMSO were transferred from compound plates to white 384-well assay plates (Greiner […] plates). […] 4 ul enzyme solution (or assay buffer for the enzyme blank) was added to the appropriate wells in each plate, and then 4 ul/well substrate solution was added to initiate the reaction. The plate was protected from light and incubated at room temperature for 60 min. […] The plate was incubated for 1 h at room temperature, and HTRF (homogenous time resolved fluorescence) signal was measured on a PHERAstar FS plate reader (BMG labtech). Percentage of inhibition was calculated for each concentration and IC50 value was generated from curve fitting with GraphPad Prism software.

Sequence of Tyro3 (Q06418 41-890): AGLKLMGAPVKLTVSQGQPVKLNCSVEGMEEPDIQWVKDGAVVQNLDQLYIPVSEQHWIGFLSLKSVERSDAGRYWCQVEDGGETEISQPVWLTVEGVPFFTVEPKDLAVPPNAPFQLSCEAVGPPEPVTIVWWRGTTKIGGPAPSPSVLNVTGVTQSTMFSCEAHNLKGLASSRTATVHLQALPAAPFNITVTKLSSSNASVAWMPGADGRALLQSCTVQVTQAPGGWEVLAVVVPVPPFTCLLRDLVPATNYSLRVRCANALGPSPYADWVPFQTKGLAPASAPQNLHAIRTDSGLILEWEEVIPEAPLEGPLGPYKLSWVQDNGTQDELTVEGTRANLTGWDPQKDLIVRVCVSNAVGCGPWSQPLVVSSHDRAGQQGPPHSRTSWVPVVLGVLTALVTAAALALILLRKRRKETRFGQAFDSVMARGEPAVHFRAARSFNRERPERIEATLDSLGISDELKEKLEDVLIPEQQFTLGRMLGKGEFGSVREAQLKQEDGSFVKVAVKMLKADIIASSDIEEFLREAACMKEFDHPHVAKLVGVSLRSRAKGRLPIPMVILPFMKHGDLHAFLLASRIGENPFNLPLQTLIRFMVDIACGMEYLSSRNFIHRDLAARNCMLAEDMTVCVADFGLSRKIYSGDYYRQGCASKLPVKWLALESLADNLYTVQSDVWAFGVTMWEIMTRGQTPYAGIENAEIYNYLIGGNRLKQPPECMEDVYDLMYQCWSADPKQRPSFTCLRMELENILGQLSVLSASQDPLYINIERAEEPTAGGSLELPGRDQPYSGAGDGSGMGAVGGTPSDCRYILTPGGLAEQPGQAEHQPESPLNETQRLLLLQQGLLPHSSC
Sequence of c-Mer (Q12866 21-999): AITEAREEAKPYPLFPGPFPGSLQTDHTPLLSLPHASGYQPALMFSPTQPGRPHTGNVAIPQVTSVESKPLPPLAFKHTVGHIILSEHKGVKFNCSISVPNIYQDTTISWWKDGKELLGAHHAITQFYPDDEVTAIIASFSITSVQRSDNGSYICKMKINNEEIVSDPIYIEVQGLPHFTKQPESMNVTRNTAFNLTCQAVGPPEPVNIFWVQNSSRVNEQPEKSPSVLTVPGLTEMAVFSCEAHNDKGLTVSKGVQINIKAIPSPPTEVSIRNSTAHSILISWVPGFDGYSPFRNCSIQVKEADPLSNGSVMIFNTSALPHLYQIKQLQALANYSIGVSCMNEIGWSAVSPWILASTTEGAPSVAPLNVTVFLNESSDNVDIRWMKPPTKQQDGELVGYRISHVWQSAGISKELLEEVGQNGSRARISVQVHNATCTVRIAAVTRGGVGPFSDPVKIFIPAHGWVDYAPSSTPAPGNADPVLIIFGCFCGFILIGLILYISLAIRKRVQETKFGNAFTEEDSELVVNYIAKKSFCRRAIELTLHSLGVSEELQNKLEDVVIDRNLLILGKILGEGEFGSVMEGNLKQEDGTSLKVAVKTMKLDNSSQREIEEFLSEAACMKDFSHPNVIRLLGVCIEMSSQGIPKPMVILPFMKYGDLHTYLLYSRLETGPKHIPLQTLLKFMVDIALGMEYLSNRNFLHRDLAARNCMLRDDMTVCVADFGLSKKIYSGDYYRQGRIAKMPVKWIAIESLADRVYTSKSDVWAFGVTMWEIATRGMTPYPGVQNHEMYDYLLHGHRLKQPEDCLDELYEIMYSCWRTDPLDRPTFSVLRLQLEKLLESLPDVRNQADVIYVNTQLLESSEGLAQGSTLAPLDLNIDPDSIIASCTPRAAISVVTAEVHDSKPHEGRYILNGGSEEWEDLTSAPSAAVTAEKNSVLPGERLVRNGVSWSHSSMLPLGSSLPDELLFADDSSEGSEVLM
Sequence of phosphor-Axl (P30530 26-894): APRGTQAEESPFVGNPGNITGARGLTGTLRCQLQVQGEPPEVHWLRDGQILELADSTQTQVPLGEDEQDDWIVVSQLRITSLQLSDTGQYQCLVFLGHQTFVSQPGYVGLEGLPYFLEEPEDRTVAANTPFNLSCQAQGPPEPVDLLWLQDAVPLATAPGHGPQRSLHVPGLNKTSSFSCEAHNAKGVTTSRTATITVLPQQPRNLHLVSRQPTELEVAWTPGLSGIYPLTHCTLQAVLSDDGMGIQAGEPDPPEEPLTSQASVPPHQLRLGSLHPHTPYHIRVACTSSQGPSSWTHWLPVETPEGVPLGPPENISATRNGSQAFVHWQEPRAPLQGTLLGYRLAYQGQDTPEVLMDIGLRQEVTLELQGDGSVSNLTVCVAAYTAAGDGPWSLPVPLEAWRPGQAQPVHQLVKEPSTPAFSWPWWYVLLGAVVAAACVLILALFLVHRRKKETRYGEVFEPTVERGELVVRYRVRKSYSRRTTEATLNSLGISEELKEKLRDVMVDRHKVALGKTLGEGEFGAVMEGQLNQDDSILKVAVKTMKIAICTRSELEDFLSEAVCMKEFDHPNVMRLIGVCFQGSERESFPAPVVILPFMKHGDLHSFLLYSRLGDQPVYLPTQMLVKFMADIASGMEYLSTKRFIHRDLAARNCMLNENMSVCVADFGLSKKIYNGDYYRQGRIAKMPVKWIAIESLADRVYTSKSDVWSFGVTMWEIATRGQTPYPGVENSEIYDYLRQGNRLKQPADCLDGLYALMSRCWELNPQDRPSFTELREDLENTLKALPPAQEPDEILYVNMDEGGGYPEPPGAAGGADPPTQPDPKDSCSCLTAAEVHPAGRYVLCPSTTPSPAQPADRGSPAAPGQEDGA

In the case of `CC(C)C(=O)N1CCC(c2cc(-c3ccc(NC(=O)c4cn(C(C)C)c(=O)n(-c5ccccc5)c4=O)cc3)c3c(N)ncnn23)CC1` [Example 63, N-(4-(4-Amino-7-(1-isobutyrylpiperidin-4-yl)pyrrolo[1,2-f][1,2,4]triazin-5-yl)phenyl)-1-isopropyl-2,4-dioxo-3-phenyl-1,2,3,4-tetrahydropyrimidine-5-carboxamide], the values for the IC50 in assay [1], in assay [2] and in assay [3] were ≤ 5 nM, 10 to 100 nM and ≤ 5 nM, respectively.
Take `CCc1cc(-c2ccc(NC(=O)c3cccn([C@H](C)CO)c3=O)cc2)c2c(N)ncnn12` [Example 3, N-[4-(4-Amino-7-ethylpyrrolo[2,1-f][1,2,4]triazin-5-yl)phenyl]-1-[(1R)-2-hydroxy-1-methylethyl]-2-oxo-1,2-dihydropyridine-3-carboxamide]: the IC50 in assay [1], in assay [2] and in assay [3] was > 100 nM in each case.
Regarding `CC(C)n1cc(C(=O)Nc2ccc(-c3cc(C4CCC(N(C)C)CC4)n4ncnc(N)c34)cc2)c(=O)n(-c2ccccc2)c1=O` (stereo not drawn) [Example 93, N-(4-(4-Amino-7-(4-(dimethylamino)cyclohexyl)pyrrolo[2,1-f][1,2,4]triazin-5-yl)phenyl)-1-isopropyl-2,4-dioxo-3-phenyl-1,2,3,4-tetrahydropyrimidine-5-carboxamide], the IC50 in assay [1], in assay [2] and in assay [3] was ≤ 5 nM throughout.
As for `Cc1c(-c2cccc(C#N)c2)c(=O)c(C(=O)Nc2ccc(-c3cc(C4CCN(C(=O)C(C)C)CC4)n4ncnc(N)c34)cc2)cn1C(C)C` [Example 99, N-(4-(4-Amino-7-(1-isobutyrylpiperidin-4-yl)pyrrolo[2,1-f][1,2,4]triazin-5-yl)phenyl)-5-(3-cyanophenyl)-1-isopropyl-6-methyl-4-oxo-1,4-dihydropyridine-3-carboxamide], the IC50 in assay [1] was ≤ 5 nM; in assay [2], 10 to 100 nM; in assay [3], ≤ 5 nM.
Consider `CC(C)C(=O)N1CCC(c2cc(-c3ccc(NC(=O)c4cc5c(n(-c6cccnc6)c4=O)CC(C)(C)CC5=O)cc3)c3c(N)ncnn23)CC1` [Example 114, N-(4-(4-Amino-7-(1-isobutyrylpiperidin-4-yl)pyrrolo[1,2-f][1,2,4]triazin-5-yl)phenyl)-7,7-dimethyl-2,5-dioxo-1-(pyridin-3-yl)-1,2,5,6,7,8-hexahydroquinoline-3-carboxamide], for which the IC50 in assay [1] is ≤ 5 nM; in assay [2] it was 10 to 100 nM; in assay [3], ≤ 5 nM.
On to `CC(=O)N1CCC(c2cc(-c3ccc(NC(=O)c4cccn(-c5ccccc5)c4=O)cc3F)c3c(N)ncnn23)CC1` [Example 26, N-{4-[7-(1-Acetylpiperidin-4-yl)-4-aminopyrrolo[2,1-f][1,2,4]triazin-5-yl]-3-fluorophenyl}-2-oxo-1-phenyl-1,2-dihydropyridine-3-carboxamide], for which the IC50 in assay [1] is ≤ 5 nM; in assay [2], 10 to 100 nM; in assay [3] it was ≤ 5 nM.
For the compound `Cc1c(-c2ccn(C)n2)cc(C(=O)Nc2ccc(-c3cc(C4CCN(C(=O)C(C)C)CC4)n4ncnc(N)c34)cc2)c(=O)n1-c1cccnc1` [Example 135, N-(4-(4-Amino-7-(1-isobutyrylpiperidin-4-yl)pyrrolo[2,1-f][1,2,4]triazin-5-yl)phenyl)-6-methyl-5-(1-methyl-1H-pyrazol-3-yl)-2-oxo-2H-[1,3′-bipyridine]-3-carboxamide], the values for the IC50 in assay [1], in assay [2] and in assay [3] were ≤ 5 nM, > 100 nM and ≤ 5 nM, respectively.
As for `CC(=O)N1CCC(c2cc(-c3ccc(NC(=O)c4cccn(-c5ccc(F)cc5)c4=O)cc3F)c3c(N)ncnn23)CC1` [Example 27, N-{4-[7-(1-Acetylpiperidin-4-yl)-4-aminopyrrolo[2,1-f][1,2,4]triazin-5-yl]-3-fluorophenyl}-1-(4-fluorophenyl)-2-oxo-1,2-dihydropyridine-3-carboxamide], the IC50 in assay [1] is ≤ 5 nM; in assay [2] it was 10 to 100 nM; in assay [3], ≤ 5 nM.
In the case of `CC(=O)N1CCC(c2cc(-c3ccc(NC(=O)c4cccn(-c5ccccc5)c4=O)cc3)c3c(N)ncnn23)CC1` [Example 24, N-{4-[7-(1-Acetylpiperidin-4-yl)-4-aminopyrrolo[2,1-f][1,2,4]triazin-5-yl]phenyl}-2-oxo-1-phenyl-1,2-dihydropyridine-3-carboxamide], the IC50 in assay [1] is ≤ 5 nM; in assay [2], 10 to 100 nM; in assay [3], ≤ 5 nM.
With `Nc1ncnn2c(C3CCNCC3)cc(-c3ccc(NC(=O)c4cccn(-c5ccccc5)c4=O)cc3F)c12` [Example 34, N-[4-(4-Amino-7-piperidin-4-ylpyrrolo[2,1-f][1,2,4]triazin-5-yl)-3-fluorophenyl]-2-oxo-1-phenyl-1,2-dihydropyridine-3-carboxamide], the values for the IC50 in assay [1], in assay [2] and in assay [3] were ≤ 5 nM, 10 to 100 nM and ≤ 5 nM, respectively.
For the compound `COC(=O)N1CCC(c2cc(-c3ccc(NC(=O)c4cccn(-c5ccc(F)cc5)c4=O)cc3F)c3c(N)ncnn23)CC1` [Example 39, Methyl 4-{4-amino-5-[2-fluoro-4-({[1-(4-fluorophenyl)-2-oxo-1,2-dihydropyridin-3-yl]carbonyl}amino)phenyl]pyrrolo[2,1-f][1,2,4]triazin-7-yl}piperidine-1-carboxylate], the IC50 in assay [1] was ≤ 5 nM; in assay [2], 10 to 100 nM; in assay [3], ≤ 5 nM.
Take `COC(=O)N1CCC(c2cc(-c3ccc(NC(=O)c4cccn(-c5ccccc5)c4=O)cc3F)c3c(N)ncnn23)CC1` [Example 38, Methyl 4-[4-amino-5-(2-fluoro-4-{[(2-oxo-1-phenyl-1,2-dihydropyridin-3-yl)carbonyl]amino}phenyl)pyrrolo[2,1-f][1,2,4]triazin-7-yl]piperidine-1-carboxylate]: the IC50 in assay [1] was ≤ 5 nM; in assay [2] it was 10 to 100 nM; in assay [3] it was ≤ 5 nM.
For the compound `CCN(C)C(=O)N1CCC(c2cc(-c3ccc(NC(=O)c4cn(C(C)C)c(=O)n(-c5ccccc5)c4=O)cc3)c3c(N)ncnn23)CC1` [Example 62, N-(4-(4-Amino-7-(1-(ethyl(methyl)carbamoyl)piperidin-4-yl)pyrrolo[1,2-f][1,2,4]triazin-5-yl)phenyl)-1-isopropyl-2,4-dioxo-3-phenyl-1,2,3,4-tetrahydropyrimidine-5-carboxamide], the IC50 in assay [1] is ≤ 5 nM; in assay [2], 10 to 100 nM; in assay [3], ≤ 5 nM.
As to `COCCN1CCC(c2cc(-c3ccc(NC(=O)c4cccn(-c5ccc(F)cc5)c4=O)cc3)c3c(N)ncnn23)CC1` [Example 49, N-(4-{4-Amino-7-[1-(2-methoxyethyl)piperidin-4-yl]pyrrolo[2,1-f][1,2,4]triazin-5-yl}phenyl)-1-(4-fluorophenyl)-2-oxo-1,2-dihydropyridine-3-carboxamide], the figures for the IC50 in assay [1], in assay [2] and in assay [3] were ≤ 5 nM, 10 to 100 nM and ≤ 5 nM, respectively.
Take `Cc1c(-c2ncco2)c(=O)c(C(=O)Nc2ccc(-c3cc(C4CCN(C(=O)C(C)C)CC4)n4ncnc(N)c34)cc2)cn1C1CC1` [Example 119, N-(4-(4-Amino-7-(1-isobutyrylpiperidin-4-yl)pyrrolo[2,1-f][1,2,4]triazin-5-yl)phenyl)-1-cyclopropyl-6-methyl-5-(oxazol-2-yl)-4-oxo-1,4-dihydropyridine-3-carboxamide]: the IC50 in assay [1] is ≤ 5 nM; in assay [2], > 100 nM; in assay [3], ≤ 5 nM.
With `CS(=O)(=O)N1CCC(c2cc(-c3ccc(NC(=O)c4cccn(-c5ccccc5)c4=O)cc3F)c3c(N)ncnn23)CC1` [Example 42], the IC50 in assay [1] was ≤ 5 nM; in assay [2], 10 to 100 nM; in assay [3] it was ≤ 5 nM.
For the compound `Nc1ncnn2c(C3CCNCC3)cc(-c3ccc(NC(=O)c4cccn(-c5ccc(F)cc5)c4=O)cc3F)c12` [Example 35, N-[4-(4-Amino-7-piperidin-4-ylpyrrolo[2,1-f][1,2,4]triazin-5-yl)-3-fluorophenyl]-1-(4-fluorophenyl)-2-oxo-1,2-dihydropyridine-3-carboxamide], the IC50 is ≤ 5 nM in assay [1], 5 to 10 nM in assay [2] and ≤ 5 nM in assay [3].
Take `CN(C)C(=O)N1CCC(c2cc(-c3ccc(NC(=O)c4cccn(-c5ccccc5)c4=O)cc3F)c3c(N)ncnn23)CC1` [Example 46, N-[4-(4-Amino-7-{1-[(dimethylamino)carbonyl]piperidin-4-yl}pyrrolo[2,1-f][1,2,4]triazin-5-yl)-3-fluorophenyl]-2-oxo-1-phenyl-1,2-dihydropyridine-3-carboxamide]: the half-maximal inhibitory concentration (IC50) was ≤ 5 nM in assay [1], 10 to 100 nM in assay [2] and ≤ 5 nM in assay [3].
`Cc1c(C#N)cc(C(=O)Nc2ccc(-c3cc(C4CCN(C(=O)C(C)C)CC4)n4ncnc(N)c34)cc2)c(=O)n1-c1ccccc1` [Example 111, N-(4-(4-Amino-7-(1-isobutyrylpiperidin-4-yl)pyrrolo[2,1-f][1,2,4]triazin-5-yl)phenyl)-5-cyano-6-methyl-2-oxo-1-phenyl-1,2-dihydropyridine-3-carboxamide]: the half-maximal inhibitory concentration (IC50) in assay [1] is ≤ 5 nM; in assay [2] it was > 100 nM; in assay [3], ≤ 5 nM.
